Bridges are numbered along the chain shown (N, C = ends). Where no end group is shown, it is not given here.
Assays:
GIRK1/2 channels = settings: cited from earlier work
Source text: (§1) To better understand the potential of activating neuronal GIRK1/2 channels for therapeutic intervention, selective and potent activators have been developed for GIRK channels. […] These activators are weak and nonspecific since they exert effects in the millimolar range and target several types of ion channels at the same range of concentrations. Thus, early investigation of the pathological and physiological relevance of GIRK channels was hampered partly by the lack of potent and selective probes. ...

GIRK2 channel = settings: ref [2],[16]; cited from earlier work
Source text: These activators are weak and nonspecific since they exert effects in the millimolar range and target several types of ion channels at the same range of concentrations. Thus, early investigation of the pathological and physiological relevance of GIRK channels was hampered partly by the lack of potent and selective probes. ...

[1] = cited from earlier work
Source text: To better understand the potential of activating neuronal GIRK1/2 channels for therapeutic intervention, selective and potent activators have been developed for GIRK channels. […] Howeve ...

GIRK channels = settings: ref [3],[38],[46]; cited from earlier work
Source text: as §1

mGIRK1/2 [2] = target: T1, mGIRK1/2 (Mus musculus, UniProt P48542+P63250); test: TEVC, K+ current enhancement through GIRK1/2 expressed in Xenopus oocytes; type: cell-based; settings: 48 μM AsKC11; heterotetrameric GIRK1/2 in oocytes; mean ± SD, n = 4; data not shown
T1 construct: expressed in transfected cells; host or cells: Xenopus laevis oocytes injected with cRNA
T1 sequence (P63250 1-501): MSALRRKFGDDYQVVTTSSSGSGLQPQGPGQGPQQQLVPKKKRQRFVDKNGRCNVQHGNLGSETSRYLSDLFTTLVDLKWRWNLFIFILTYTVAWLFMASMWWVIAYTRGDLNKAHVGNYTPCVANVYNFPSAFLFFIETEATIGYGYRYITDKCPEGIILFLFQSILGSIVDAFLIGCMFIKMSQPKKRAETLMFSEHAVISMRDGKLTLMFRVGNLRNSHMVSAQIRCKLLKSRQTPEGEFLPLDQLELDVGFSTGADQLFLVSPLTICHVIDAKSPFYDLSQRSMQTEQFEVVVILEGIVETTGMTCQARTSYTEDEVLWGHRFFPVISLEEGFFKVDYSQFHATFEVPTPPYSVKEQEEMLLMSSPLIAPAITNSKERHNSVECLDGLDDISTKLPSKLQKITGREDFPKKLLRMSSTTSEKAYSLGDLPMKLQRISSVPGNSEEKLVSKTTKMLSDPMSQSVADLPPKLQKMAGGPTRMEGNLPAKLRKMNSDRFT
T1 sequence (P48542 1-425): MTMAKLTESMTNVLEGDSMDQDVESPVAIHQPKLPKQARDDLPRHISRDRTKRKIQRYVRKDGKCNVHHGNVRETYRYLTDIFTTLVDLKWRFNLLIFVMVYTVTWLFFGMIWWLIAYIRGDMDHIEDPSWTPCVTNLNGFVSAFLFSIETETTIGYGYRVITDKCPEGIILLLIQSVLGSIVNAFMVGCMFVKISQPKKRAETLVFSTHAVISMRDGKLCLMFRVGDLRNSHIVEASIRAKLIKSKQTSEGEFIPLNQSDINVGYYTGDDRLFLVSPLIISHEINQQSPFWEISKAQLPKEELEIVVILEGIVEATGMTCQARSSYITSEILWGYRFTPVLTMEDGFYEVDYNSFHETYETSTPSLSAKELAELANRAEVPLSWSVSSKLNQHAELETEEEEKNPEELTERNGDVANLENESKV
Source text: To identify the novel activator of GIRK1/2 channels, we first tested the effects of venom fractions previously purified from the venom of Anemonia sulcata on whole-cell currents in oocytes expressing GIRK1/2 channels. […] The oocytes coinjected with GIRK1/2 cRNA were voltage-clamped at −90 mV. To increase the GIRK current at the negative potential, a high-potassium extracellular buffer (HK) was used, which allowed for more obvious currents and accurate measurement. Thus, after exchanging ND96 to HK, basal K^+ currents (IK,basal) were observed and were carried by GIRK1/2 channels (Figure 1a).
The potency of AsKC11 to enhance inward K^+ currents through GIRK1/2 channels was studied by applying increasing concentrations of AsKC11 (2.4, 12, 24, and 48 µM) to oocytes expressing GIRK1/2 channels. These oocytes were subjected to a 1-s voltage ramp protocol from −150 to +60 mV from a holding potential of −20 mV.
All procedures for the use and handling of adult female Xenopus laevis frogs (CRB Xénopes, Rennes, France) were approved by the Animal Ethics Committee of the KU Leuven (Project No. P186/2019) following regulations of the European Union (EU) concerning the welfare of laboratory animals, as declared in Directive 2010/63/EU. […] After recovery from anesthesia, frogs were returned to their tanks in the Aquatic Facility of KU Leuven and were monitored daily. […]

mGIRK1/2 [3] = target: T1, mGIRK1/2; test: Kinetics and affinity of AsKC11 on GIRK1/2 channels (wash-in/wash-out, bimolecular scheme); type: cell-based
Source text: As shown in the abovementioned results, AsKC11 binding was reversible. We next explored whether the AsKC11-elicited activation of GIRK1/2 channels followed a kinetic behavior of a simple bimolecular reaction. The current activation upon AsKC11 application and recovery upon AsKC11 removal followed a single exponential time course compatible with a bimolecular reaction scheme (See Section 4).
For the expression of potassium channels (hKV1.1, hKV1.2, hKV1.3, rKV1.4, rKV1.6, and mGIRK1/2, mGIRK2 alone, or IRK1) in Xenopus oocytes, the linearized plasmids were transcribed using the T3, T7, or SP6 mMESSAGEmMACHINE transcription kit (Ambion, Austin, TX, USA). Following the cRNA injection into oocytes and 1–4 days of incubation at 16 °C, electrophysiological experiments were conducted using the two-electrode voltage-clamp (TEVC) GeneClamp 500B (Axon Instruments, San Jose, CA, USA). Electrodes were fabricated from borosilicate glass tubes (1.14 mm outside diameter, 0.7 mm inside diameter) by a programmable microelectrode puller, PUL-1 (World Precision Instruments, Sarasota, FL, USA). Electrodes were filled with 3 M KCl and had tip resistances from 0.8 to 1.5 MΩ. […]

GIRK1/2 channel = target: T2, GIRK1/2 channel (Mus musculus, UniProt P63250); test: two-electrode voltage clamp kinetics (koff/kon) in Xenopus oocytes
T2 chain 1: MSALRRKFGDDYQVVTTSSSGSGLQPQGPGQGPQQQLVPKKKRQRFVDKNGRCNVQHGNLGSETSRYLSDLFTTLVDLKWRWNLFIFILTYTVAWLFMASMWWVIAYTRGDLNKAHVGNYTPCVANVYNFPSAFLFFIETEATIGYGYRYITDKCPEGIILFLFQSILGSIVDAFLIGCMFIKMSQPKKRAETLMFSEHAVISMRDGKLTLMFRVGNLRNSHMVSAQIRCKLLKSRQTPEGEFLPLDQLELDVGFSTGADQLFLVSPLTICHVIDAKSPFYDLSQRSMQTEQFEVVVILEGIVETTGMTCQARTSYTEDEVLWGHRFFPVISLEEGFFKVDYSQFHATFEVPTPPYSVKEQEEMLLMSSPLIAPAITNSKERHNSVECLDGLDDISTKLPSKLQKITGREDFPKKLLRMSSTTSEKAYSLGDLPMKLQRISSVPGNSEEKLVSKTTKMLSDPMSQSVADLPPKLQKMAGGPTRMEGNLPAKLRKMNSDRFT
T2 chain 2: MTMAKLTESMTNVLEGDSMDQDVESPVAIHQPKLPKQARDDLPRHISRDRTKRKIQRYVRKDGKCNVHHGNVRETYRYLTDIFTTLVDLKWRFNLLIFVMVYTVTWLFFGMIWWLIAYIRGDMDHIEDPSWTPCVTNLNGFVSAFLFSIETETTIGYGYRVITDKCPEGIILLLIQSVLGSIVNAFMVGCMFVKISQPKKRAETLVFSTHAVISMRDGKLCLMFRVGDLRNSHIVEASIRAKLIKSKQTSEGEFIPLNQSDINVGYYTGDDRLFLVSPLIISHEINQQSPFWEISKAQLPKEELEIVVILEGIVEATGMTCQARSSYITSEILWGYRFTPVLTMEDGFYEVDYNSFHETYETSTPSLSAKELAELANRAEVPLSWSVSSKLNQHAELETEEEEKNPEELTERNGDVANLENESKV

Cc1cc(NC(=O)Nc2ccc(F)c(F)c2)n(-c2ccccc2)n1 [ML297]
affinity of activity on GIRK1/2 (GIRK1/2 channels; ref [2],[5],[16]): nanomolar range | requirement for GIRK1/2 activation (GIRK1/2 channels; ref [2]): required the presence of the membrane phospholipid phosphatidylinositol 4,5-bisphosphate instead of Gi/o | effect on GIRK2 channel (GIRK2 channel): not affect the GIRK2 channel | effects in animal models ([1]; ref [2],[16]): antiepileptic and anxiolytic effects in animal models | pharmacokinetic properties ([1]; ref [2]): suboptimal

CCO [ethanol]
potency for activating GIRK channels (GIRK channels): very low potency

C[C@@H]1O[C@@H](O[C@H]2[C@H](Oc3cc(O)c4c(c3)O[C@H](c3ccc(O)cc3)CC4=O)O[C@H](CO)[C@@H](O)[C@@H]2O)[C@H](O)[C@H](O)[C@H]1O [naringin]
potency for activating GIRK channels (GIRK channels): very low potency

INKDCLLPKVVGFCRARFPRYYYNSSSRRCEKFIYGGCGGNANNFSSYYECHIKCFGPR (disulfide 5-55, 14-38, 30-51) [AsKC11]
enhancement in inward K+ currents, GIRK1/2 (mGIRK1/2 [2]): 74.1 ± 12.5% | koff (mGIRK1/2 [3]; 48 μM AsKC11, wash-out, read-out: first-order dissociation rate constant (koff = β)): 0.00633 s⁻¹ | kon (mGIRK1/2 [3]; 48 μM AsKC11, read-out: second-order association rate constant (α)): 78.2 M⁻¹ s⁻¹

B1: AsKC11 (protein)
chain: INKDCLLPKVVGFCRARFPRYYYNSSSRRCEKFIYGGCGGNANNFSSYYECHIKCFGPR
Kd (GIRK1/2 channel): 80.9 µM

Reference: paper PMC8876855, “AsKC11, a Kunitz Peptide from Anemonia sulcata, Is a Novel Activator of G Protein-Coupled Inward-Rectifier Potassium Channels” (Marine Drugs, 2022)
